Results on 1 molecule are retold here after article PMC9298352, “Design, Synthesis and Structural Analysis of Glucocerebrosidase Imaging Agents” (Chemistry (Weinheim an Der Bergstrasse, Germany), 2021).

The target of test [1] is T1, endogenous GBA in HEK293T cells (Homo sapiens, UniProt P04062).
T1 construct: endogenous in cells; host or cells: HEK293T
T1 sequence (P04062 40-536): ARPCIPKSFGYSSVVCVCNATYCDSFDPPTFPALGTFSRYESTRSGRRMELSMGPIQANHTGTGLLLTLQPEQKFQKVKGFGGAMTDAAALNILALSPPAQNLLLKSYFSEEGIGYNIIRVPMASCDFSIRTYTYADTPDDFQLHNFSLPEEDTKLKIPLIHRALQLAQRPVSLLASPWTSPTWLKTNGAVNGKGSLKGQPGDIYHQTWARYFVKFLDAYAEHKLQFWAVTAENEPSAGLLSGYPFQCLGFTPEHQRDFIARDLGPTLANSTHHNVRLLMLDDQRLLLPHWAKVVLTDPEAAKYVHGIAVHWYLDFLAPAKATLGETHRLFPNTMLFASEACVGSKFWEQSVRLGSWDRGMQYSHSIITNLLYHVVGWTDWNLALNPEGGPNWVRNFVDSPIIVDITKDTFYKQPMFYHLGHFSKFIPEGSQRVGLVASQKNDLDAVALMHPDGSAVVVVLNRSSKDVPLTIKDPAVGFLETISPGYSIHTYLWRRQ
Nature of the test: In situ labeling of GBA in living HEK293T cells (gel-based ABPP). Type of test: cell-based. The following applies: 1–1000 nM, 24 h, 37 °C. The protocol:
HEK293T cells containing endogenous GBA and overexpressed GBA2 were treated with the ABPs at different concentrations (1–1000 nM) for 24 hr. Cells were then washed, lysed and the fluorescence was visualized by gel‐based ABPP (Figure 8).
CBB, Coomassie Brilliant Blue staining (bottom panel).
Labelling of HEK293T cells, containing endogenous GBA and overexpressed GBA2, with ABPs 6, 8 and 9 was conducted based on previously described methods[69] as outlined in the Supporting Information (page 7).
Cy5 tetrazine 20 (2.83 mg, 4.3 µmol) was added to a solution of norbornene 19 (0.94 mg, 2.38 µmol) in MeOH (4 mL). After stirring overnight at rt, the reaction mixture was concentrated in vacuo and purified by HPLC under neutral conditions (A: 50 mM NH4HCO3 in H2O; B: MeCN; 49% → 52%, A in […]
Biochemical Methods: General Experimental Details
Recombinant human GBA (rhGBA, imiglucerase, Cerezyme®) and GAA (rhGAA, alglucosidase alfa, Myozyme) were obtained from Sanofi Genzyme (Cambridge, MA, USA). HEK293T (CRL-3216) cell lines were purchased from ATCC (Manassas, VA, USA). Cell lines were […]
(1 picture or pasted object on this page, not shown here)

Test [2] deals with T2, GBA2 in mouse brain lysate (Mus musculus, UniProt Q69ZF3).
T2 construct: from tissue; host or cells: mouse brain
T2 sequence (Q69ZF3 1-918): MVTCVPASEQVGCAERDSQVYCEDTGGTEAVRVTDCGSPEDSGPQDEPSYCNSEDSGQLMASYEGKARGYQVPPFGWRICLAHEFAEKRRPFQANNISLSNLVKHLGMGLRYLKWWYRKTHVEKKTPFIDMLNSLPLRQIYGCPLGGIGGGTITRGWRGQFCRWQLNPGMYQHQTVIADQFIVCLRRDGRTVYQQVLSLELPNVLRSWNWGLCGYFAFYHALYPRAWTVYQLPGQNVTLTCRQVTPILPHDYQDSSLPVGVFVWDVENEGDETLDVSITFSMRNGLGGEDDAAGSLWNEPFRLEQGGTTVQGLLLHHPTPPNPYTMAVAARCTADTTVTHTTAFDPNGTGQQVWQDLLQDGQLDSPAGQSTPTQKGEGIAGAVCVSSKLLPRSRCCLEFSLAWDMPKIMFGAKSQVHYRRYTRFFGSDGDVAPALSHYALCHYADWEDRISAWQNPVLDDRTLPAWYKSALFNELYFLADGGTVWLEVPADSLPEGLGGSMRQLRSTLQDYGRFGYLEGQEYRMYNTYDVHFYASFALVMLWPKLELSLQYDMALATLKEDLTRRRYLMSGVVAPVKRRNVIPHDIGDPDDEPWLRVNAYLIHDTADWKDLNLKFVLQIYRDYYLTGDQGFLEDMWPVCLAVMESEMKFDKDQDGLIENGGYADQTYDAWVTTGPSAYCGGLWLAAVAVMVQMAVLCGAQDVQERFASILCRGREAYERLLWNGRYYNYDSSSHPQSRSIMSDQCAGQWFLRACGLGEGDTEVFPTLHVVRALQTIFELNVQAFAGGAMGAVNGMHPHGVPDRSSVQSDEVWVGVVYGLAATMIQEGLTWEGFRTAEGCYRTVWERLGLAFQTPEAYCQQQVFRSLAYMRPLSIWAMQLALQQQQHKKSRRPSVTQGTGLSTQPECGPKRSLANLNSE
In words: Fluorescent labeling of mouse brain lysate, GBA2. The test is classed as biochemical. The following applies: 30 min, 37 °C. The protocol:
We next investigated their labeling efficiency and selectivity toward GBA in mouse brain lysate at pH 5.2 (containing 0.2 % taurocholate and 0.1 % Triton‐100) and pH 5.8 as respective optimal conditions for GBA and GBA2 activities (Figure 7). […] Importantly, no labelling of GBA2 was observed up to 1000 nM, showing good GBA selectivity.
Labeling by broad‐spectrum β‐glucosidase ABP 8 is shown for comparison (100 nM, pH 5.2 or pH 5.8, 30 min, 37 °C).
Fluorescent labeling with broad‐spectrum ABP 8 was performed at 100 nM ABP concentration at 37 °C for 30 min at pH 5.2 (with 0.1 % (v/v) Triton X‐100 and 0.2 % (w/v) sodium taurocholate) or pH 5.8 respectively. Samples were then denatured with 4 μL Laemmli (5x) sample buffer and heated at 98 °C for 5 minutes. Proteins were resolved by electrophoresis in 10 % SDS‐PAGE gels, running at a constant of 90 V for 30 minutes followed by 120 V for approximately 60 minutes. Wet slab gels were scanned on fluorescence using a Typhoon FLA9500 Imager (GE Healthcare) using λEX 635 nm; λEM >665 nm and images were processed using ImageLab 5.2.1 (BioRad).

For test [3], the target named is T3, rhGBA (Homo sapiens, UniProt P04062).
T3 construct: made in house; host or cells: insect-baculovirus expression vector system (BEVS)
T3 sequence (P04062 40-536): T1 sequence (P04062 40-536)
In words: Titration of ABP 6 and ABP 9 with constant rhGBA (gel-based labelling). The test is classed as biochemical. The following applies: constant rhGBA 200 nM, ABP 150–0.001 nM, 37 °C, 30 mins. The protocol: Maximum‐likelihood/σA weighted (2Fo–Fc) electron density map contoured to 1.0 σ (a=1.31 e^−/Å^3). […] Fluorescently labelled rhGBA visualized by Cy5 fluorescent readout. D=denatured protein sample.
The reactions were incubated at 37 °C for 30 mins and denatured with Laemmli (x3) sample buffer at 95 °C for 5 minutes. The samples were resolved by electrophoresis in 10 % SDS‐PAGE gels, running at 200 V for ∼50 minutes. Wet slab gels were scanned on fluorescence using an Amersham Typhoon 5 Imager (GE Healthcare) with λEX 635 nm; λEM >665 nm.

For the molecule `CCCCCCCCN1[C@@H]2[C@H](Cn3cc(CNC(=O)CCCCC[N+]4=C(/C=C/C=C/C=C5/N(C)c6ccccc6C5(C)C)C(C)(C)c5ccccc54)nn3)[C@@H](O)[C@H](O)[C@@H](O)[C@@H]21` (stereo partly drawn) [ABP 6], the “ABP concentration at which in situ labeling of GBA is observed” value in test [1] is listed as 10 nM. Besides, the “ABP concentration up to which no labelling of GBA2 was observed” value in test [2] is reported as greater than 1000 nM. The “gel-detection limit (ABP concentration)” value in test [3] is recorded as 1 nM.
